Assays:
GPR3 = target: T1, GPR3 (Homo sapiens, UniProt P46089); assay: GPR3 antagonist functional cAMP assay (LANCE Ultra cAMP TR-FRET, CHO cells stably expressing GPR3); format: cell-based; conditions: procedure of Example 24
T1 construct: expressed in transfected cells; host or cells: CHO cells
How it was run: (§1)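 10,000 cells/well; KRB buffer + 0.1% BSA + 150 μM Ro 20-1724; cpd 45 min, 37 °C, 0.1% DMSO; TR-FRET cAMP, 665 nm; 4-PL fit, normalized to DMSO (0.1%) and reference (100%) → IC50.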

GPR6 = target: T2, GPR6 (Homo sapiens, UniProt P46095); assay: GPR6 antagonist functional cAMP assay (LANCE Ultra cAMP TR-FRET, CHO cells stably expressing GPR6); format: cell-based; conditions: procedure of Example 24
T2 construct: expressed in transfected cells; host or cells: CHO cells
How it was run: as §1

T2 sequence (P46095 whole entry): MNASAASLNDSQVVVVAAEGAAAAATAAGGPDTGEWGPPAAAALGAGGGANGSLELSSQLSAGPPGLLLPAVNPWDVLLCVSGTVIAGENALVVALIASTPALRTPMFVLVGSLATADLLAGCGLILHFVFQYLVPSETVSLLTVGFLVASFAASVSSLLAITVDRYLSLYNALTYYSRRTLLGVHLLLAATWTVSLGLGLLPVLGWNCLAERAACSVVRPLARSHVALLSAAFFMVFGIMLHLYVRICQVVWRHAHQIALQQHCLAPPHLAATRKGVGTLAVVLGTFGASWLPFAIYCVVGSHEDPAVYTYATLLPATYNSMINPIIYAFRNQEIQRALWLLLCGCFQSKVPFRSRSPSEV
T1 sequence (P46089 whole entry, species assumed): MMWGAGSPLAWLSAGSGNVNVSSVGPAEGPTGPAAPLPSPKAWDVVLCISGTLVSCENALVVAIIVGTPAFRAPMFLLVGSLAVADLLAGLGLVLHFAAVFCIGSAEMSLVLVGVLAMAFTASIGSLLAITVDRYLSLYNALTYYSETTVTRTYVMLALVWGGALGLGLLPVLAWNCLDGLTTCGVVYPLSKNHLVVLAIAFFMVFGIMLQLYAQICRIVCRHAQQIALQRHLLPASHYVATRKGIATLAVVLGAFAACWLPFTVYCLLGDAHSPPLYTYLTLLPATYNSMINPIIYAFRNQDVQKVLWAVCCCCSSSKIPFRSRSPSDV

Structure (SMILES): CCn1cc(-c2nc3c(nc2N2CCC(Oc4ccc(F)cc4F)CC2)CCN(C(=O)CO)C3)cn1 [Compound 311, 1-{2-[4-(2,4-difluorophenoxy)piperidin-1-yl]-3-(1-ethyl-1H-pyrazol-4-yl)-5H,6H,7H,8H-pyrido[3,4-b]pyrazin-6-yl}-2-hydroxyethan-1-one]
- IC50 (GPR3): 1000 to 30000 nM
- IC50 (GPR6): < 100 nM

Structure (SMILES): CCCn1cc(-c2nc3c(nc2N2CCC(Oc4ccc(F)cc4F)CC2)CCN(C(C)=O)C3)cn1 [Compound 312, 1-{2-[4-(2,4-difluorophenoxy)piperidin-1-yl]-3-(1-propyl-1H-pyrazol-4-yl)-5H,6H,7H,8H-pyrido[3,4-b]pyrazin-6-yl}ethan-1-one]
- IC50 (GPR3): 1000 to 30000 nM
- IC50 (GPR6): < 100 nM

Structure (SMILES): CCn1cc(-c2nc3cnc(C)cc3nc2N2CCC(Oc3ccc(F)cc3F)CC2)cn1 [Compound 313, 4-(2,4-difluorophenoxy)-1-[3-(1-ethyl-1H-pyrazol-4-yl)-7-methylpyrido[3,4-b]pyrazin-2-yl]piperidine]
- IC50 (GPR3): 1000 to 30000 nM
- IC50 (GPR6): 100 to 1000 nM

Structure (SMILES): Cn1cc(-c2nc3cnc(C(=O)O)cc3nc2N2CCC(Oc3ccc(F)cc3F)CC2)cn1 [Compound 314, 2-[4-(2,4-difluorophenoxy)piperidin-1-yl]-3-(1-methyl-1H-pyrazol-4-yl)pyrido[3,4-b]pyrazine-7-carboxylic acid]
- IC50 (GPR3): 1000 to 30000 nM
- IC50 (GPR6): 1000 to 30000 nM

Structure (SMILES): CC(=O)OC1CCN(c2nc3c(nc2-c2cnn(C)c2)CN(C(C)=O)CC3)C1 (centres unmarked) [Compound 315, 1-[6-acetyl-3-(1-methyl-1H-pyrazol-4-yl)-5H,6H,7H,8H-pyrido[3,4-b]pyrazin-2-yl]pyrrolidin-3-yl acetate]
- IC50 (GPR3): 100 to 1000 nM
- IC50 (GPR6): ≥ 30000 nM

Structure (SMILES): COc1ccc(CN2CCN(c3nc4c(nc3-c3cnn(C)c3)CN(C(C)=O)CC4)CC2)c(F)c1 [Compound 316, 1-(2-{4-[(2-fluoro-4-methoxyphenyl)methyl]piperazin-1-yl}-3-(1-methyl-1H-pyrazol-4-yl)-5H,6H,7H,8H-pyrido[3,4-b]pyrazin-6-yl)ethan-1-one]
- IC50 (GPR3): 1000 to 30000 nM
- IC50 (GPR6): 100 to 1000 nM

Structure (SMILES): COc1ccc(CN2CCN(c3nc4c(nc3-c3cnn(C)c3)CN(C(C)=O)CC4)CC2)cc1 [Compound 317, 1-(2-{4-[(4-methoxyphenyl)methyl]piperazin-1-yl}-3-(1-methyl-1H-pyrazol-4-yl)-5H,6H,7H,8H-pyrido[3,4-b]pyrazin-6-yl)ethan-1-one]
- IC50 (GPR3): 1000 to 30000 nM
- IC50 (GPR6): 1000 to 30000 nM

Structure (SMILES): COc1cccc(CN2CCN(c3nc4c(nc3-c3cnn(C)c3)CN(C(C)=O)CC4)CC2)c1F [Compound 318, 1-(2-{4-[(2-fluoro-3-methoxyphenyl)methyl]piperazin-1-yl}-3-(1-methyl-1H-pyrazol-4-yl)-5H,6H,7H,8H-pyrido[3,4-b]pyrazin-6-yl)ethan-1-one]
- IC50 (GPR3): 1000 to 30000 nM
- IC50 (GPR6): ≥ 30000 nM

Structure (SMILES): COc1ccc(CN2CCN(c3nc4c(nc3-c3cnn(C)c3)CN(C(C)=O)CC4)CC2)cc1F [Compound 319, 1-(2-{4-[(3-fluoro-4-methoxyphenyl)methyl]piperazin-1-yl}-3-(1-methyl-1H-pyrazol-4-yl)-5H,6H,7H,8H-pyrido[3,4-b]pyrazin-6-yl)ethan-1-one]
- IC50 (GPR3): 1000 to 30000 nM
- IC50 (GPR6): 1000 to 30000 nM

Structure (SMILES): CC(=O)N1CCc2nc(N3CCN(Cc4cccc(F)c4F)CC3)c(-c3cnn(C)c3)nc2C1 [Compound 320, 1-(2-{4-[(2,3-difluorophenyl)methyl]piperazin-1-yl}-3-(1-methyl-1H-pyrazol-4-yl)-5H,6H,7H,8H-pyrido[3,4-b]pyrazin-6-yl)ethan-1-one]
- IC50 (GPR3): 1000 to 30000 nM
- IC50 (GPR6): 1000 to 30000 nM

Structure (SMILES): CC(=O)N1CCc2nc(N3CCN(Cc4ccc(F)c(F)c4)CC3)c(-c3cnn(C)c3)nc2C1 [Compound 321, 1-(2-{4-[(3,4-difluorophenyl)methyl]piperazin-1-yl}-3-(1-methyl-1H-pyrazol-4-yl)-5H,6H,7H,8H-pyrido[3,4-b]pyrazin-6-yl)ethan-1-one]
- IC50 (GPR3): 1000 to 30000 nM
- IC50 (GPR6): 1000 to 30000 nM

Structure (SMILES): COc1ccc(CN2CCN(c3nc4c(nc3-c3cnn(C)c3)CN(C(C)=O)CC4)CC2)c(OC)c1 [Compound 322, 1-(2-{4-[(2,4-dimethoxyphenyl)methyl]piperazin-1-yl}-3-(1-methyl-1H-pyrazol-4-yl)-5H,6H,7H,8H-pyrido[3,4-b]pyrazin-6-yl)ethan-1-one]
- IC50 (GPR3): 1000 to 30000 nM
- IC50 (GPR6): ≥ 30000 nM

Structure (SMILES): CC(=O)N1CCc2nc(N3CCC(COc4ccccc4F)C3)c(-c3cnn(C)c3)nc2C1 (centres unmarked) [Compound 323, 1-(2-{3-[(2-fluorophenoxy)methyl]pyrrolidin-1-yl}-3-(1-methyl-1H-pyrazol-4-yl)-5H,6H,7H,8H-pyrido[3,4-b]pyrazin-6-yl)ethan-1-one]
- IC50 (GPR3): 1000 to 30000 nM
- IC50 (GPR6): 1000 to 30000 nM

Structure (SMILES): CC(=O)N1CCc2nc(N3CCC(COc4cccc(F)c4)C3)c(-c3cnn(C)c3)nc2C1 (centres unmarked) [Compound 324, 1-(2-{3-[(3-fluorophenoxy)methyl]pyrrolidin-1-yl}-3-(1-methyl-1H-pyrazol-4-yl)-5H,6H,7H,8H-pyrido[3,4-b]pyrazin-6-yl)ethan-1-one]
- IC50 (GPR3): 1000 to 30000 nM
- IC50 (GPR6): 1000 to 30000 nM

Structure (SMILES): CC(=O)N1CCc2nc(N3CCC(COc4ccc(F)cc4)C3)c(-c3cnn(C)c3)nc2C1 (centres unmarked) [Compound 325, 1-(2-{3-[(4-fluorophenoxy)methyl]pyrrolidin-1-yl}-3-(1-methyl-1H-pyrazol-4-yl)-5H,6H,7H,8H-pyrido[3,4-b]pyrazin-6-yl)ethan-1-one]
- IC50 (GPR3): 1000 to 30000 nM
- IC50 (GPR6): 1000 to 30000 nM

Structure (SMILES): CC(=O)N1CCc2nc(N3CCC(Oc4ccc(F)cc4F)CC3)c(-c3ccc4c(n3)OCC4)nc2C1 [Compound 326, 1-{2-[4-(2,4-difluorophenoxy)piperidin-1-yl]-3-{2H,3H-furo[2,3-b]pyridin-6-yl}-5H,6H,7H,8H-pyrido[3,4-b]pyrazin-6-yl}ethan-1-one]
- IC50 (GPR3): 1000 to 30000 nM
- IC50 (GPR6): 1000 to 30000 nM

Structure (SMILES): Cn1cc(-c2nc3cnccc3nc2N2CC(Oc3ccc(F)cc3F)C2)cn1 [Compound 327, 4-{2-[3-(2,4-difluorophenoxy)azetidin-1-yl]pyrido[3,4-b]pyrazin-3-yl}-1-methyl-1H-pyrazole]
- IC50 (GPR3): 1000 to 30000 nM
- IC50 (GPR6): 1000 to 30000 nM

Structure (SMILES): Cn1cc(-c2nc3c(Cl)nccc3nc2N2CCC(Oc3ccc(F)cc3F)CC2)cn1 [Compound 328, 1-[5-chloro-3-(1-methyl-1H-pyrazol-4-yl)pyrido[3,4-b]pyrazin-2-yl]-4-(2,4-difluorophenoxy)piperidine]
- IC50 (GPR3): 1000 to 30000 nM
- IC50 (GPR6): 100 to 1000 nM

Structure (SMILES): CNc1cncc(-c2nc3c(nc2N2CCC(Oc4ccc(F)cc4F)CC2)CCN(C(C)=O)C3)n1 [Compound 329, 1-{2-[4-(2,4-difluorophenoxy)piperidin-1-yl]-3-[6-(methylamino)pyrazin-2-yl]-5H,6H,7H,8H-pyrido[3,4-b]pyrazin-6-yl}ethan-1-one]
- IC50 (GPR3): 100 to 1000 nM
- IC50 (GPR6): < 100 nM

Structure (SMILES): Cn1cc(-c2nc3cnc(C(N)=O)cc3nc2N2CCC(Oc3ccc(F)cc3F)CC2)cn1 [Compound 330, 2-[4-(2,4-difluorophenoxy)piperidin-1-yl]-3-(1-methyl-1H-pyrazol-4-yl)pyrido[3,4-b]pyrazine-7-carboxamide]
- IC50 (GPR3): 1000 to 30000 nM
- IC50 (GPR6): 100 to 1000 nM

Structure (SMILES): CC(=O)N1CCc2nc(N3CCCC(Oc4ccccc4)C3)c(-c3cnn(C)c3)nc2C1 (centres unmarked) [Compound 335, 1-[3-(1-methyl-1H-pyrazol-4-yl)-2-(3-phenoxypiperidin-1-yl)-5H,6H,7H,8H-pyrido[3,4-b]pyrazin-6-yl]ethan-1-one]
- IC50 (GPR3): 1000 to 30000 nM
- IC50 (GPR6): ≥ 30000 nM

Structure (SMILES): CC(=O)N1CCc2nc(N3CCCC(Oc4ccccc4F)C3)c(-c3cnn(C)c3)nc2C1 (centres unmarked) [Compound 336, 1-{2-[3-(2-fluorophenoxy)piperidin-1-yl]-3-(1-methyl-1H-pyrazol-4-yl)-5H,6H,7H,8H-pyrido[3,4-b]pyrazin-6-yl}ethan-1-one]
- IC50 (GPR3): 100 to 1000 nM
- IC50 (GPR6): ≥ 30000 nM

Structure (SMILES): CC(=O)N1CCc2nc(N3CCCC(Oc4cccc(F)c4)C3)c(-c3cnn(C)c3)nc2C1 (centres unmarked) [Compound 337, 1-{2-[3-(3-fluorophenoxy)piperidin-1-yl]-3-(1-methyl-1H-pyrazol-4-yl)-5H,6H,7H,8H-pyrido[3,4-b]pyrazin-6-yl}ethan-1-one]
- IC50 (GPR3): 1000 to 30000 nM
- IC50 (GPR6): ≥ 30000 nM

Structure (SMILES): CC(=O)N1CCc2nc(N3CCCC(Oc4ccc(F)cc4)C3)c(-c3cnn(C)c3)nc2C1 (centres unmarked) [Compound 338, 1-{2-[3-(4-fluorophenoxy)piperidin-1-yl]-3-(1-methyl-1H-pyrazol-4-yl)-5H,6H,7H,8H-pyrido[3,4-b]pyrazin-6-yl}ethan-1-one]
- IC50 (GPR3): 1000 to 30000 nM
- IC50 (GPR6): ≥ 30000 nM

Structure (SMILES): CC(=O)N1CCc2nc(N3CCCC(Oc4cc(F)ccc4F)C3)c(-c3cnn(C)c3)nc2C1 (centres unmarked) [Compound 339, 1-{2-[3-(2,5-difluorophenoxy)piperidin-1-yl]-3-(1-methyl-1H-pyrazol-4-yl)-5H,6H,7H,8H-pyrido[3,4-b]pyrazin-6-yl}ethan-1-one]
- IC50 (GPR3): 100 to 1000 nM
- IC50 (GPR6): ≥ 30000 nM

Structure (SMILES): CC(=O)N1CCc2nc(N3CCC(Oc4ccccc4F)C3)c(-c3cnn(C)c3)nc2C1 (centres unmarked) [Compound 340, 1-{2-[3-(2-fluorophenoxy)pyrrolidin-1-yl]-3-(1-methyl-1H-pyrazol-4-yl)-5H,6H,7H,8H-pyrido[3,4-b]pyrazin-6-yl}ethan-1-one]
- IC50 (GPR3): ≥ 30000 nM
- IC50 (GPR6): 1000 to 30000 nM

Structure (SMILES): CC(=O)N1CCc2nc(N3CCC(Oc4ccc(F)cc4)C3)c(-c3cnn(C)c3)nc2C1 (centres unmarked) [Compound 341, 1-{2-[3-(4-fluorophenoxy)pyrrolidin-1-yl]-3-(1-methyl-1H-pyrazol-4-yl)-5H,6H,7H,8H-pyrido[3,4-b]pyrazin-6-yl}ethan-1-one]
- IC50 (GPR3): 1000 to 30000 nM
- IC50 (GPR6): 1000 to 30000 nM

Structure (SMILES): CC(=O)N1CCc2nc(N3CCC(Oc4cc(F)ccc4F)C3)c(-c3cnn(C)c3)nc2C1 (centres unmarked) [Compound 342, 1-{2-[3-(2,5-difluorophenoxy)pyrrolidin-1-yl]-3-(1-methyl-1H-pyrazol-4-yl)-5H,6H,7H,8H-pyrido[3,4-b]pyrazin-6-yl}ethan-1-one]
- IC50 (GPR3): 100 to 1000 nM
- IC50 (GPR6): 1000 to 30000 nM

— patent US20260042755A1, “GPR6 INVERSE AGONISTS” (MapLight Therapeutics, Inc., priority 2022, published 2026)
